This note sets out measurements from BindingDB's records for PubMed 20126400 (University of Oklahoma, 2010).

Where only a bound is given, the exact number is not on record here.

What all share (assay): Ray2010 Assay 74
Test [1] concerns the target Sodium-dependent serotonin transporter (Homo sapiens, UniProt P31645). The source says: (§1) Table S2 shows raw Ki data for the current study combined with data collected from the literature for the ten additional compounds.
The target in test [2] is Sodium-dependent dopamine transporter (Homo sapiens, UniProt Q01959).
Source text: as §1

In the next test the target is T1, D(4) dopamine receptor (Homo sapiens, UniProt P21917).
T1 sequence (P21917 whole entry): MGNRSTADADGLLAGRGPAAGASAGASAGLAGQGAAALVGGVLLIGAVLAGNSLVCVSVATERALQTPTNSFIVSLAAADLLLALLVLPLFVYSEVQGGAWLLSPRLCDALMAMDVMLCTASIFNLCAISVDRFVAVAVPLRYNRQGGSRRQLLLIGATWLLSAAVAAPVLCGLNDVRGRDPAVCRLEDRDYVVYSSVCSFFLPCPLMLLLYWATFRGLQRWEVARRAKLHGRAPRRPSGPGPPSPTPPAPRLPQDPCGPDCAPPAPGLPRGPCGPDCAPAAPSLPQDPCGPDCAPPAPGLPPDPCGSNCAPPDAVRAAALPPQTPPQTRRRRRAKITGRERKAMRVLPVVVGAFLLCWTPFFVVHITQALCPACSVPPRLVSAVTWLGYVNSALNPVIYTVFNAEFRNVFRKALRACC
Source text: as §1

Another test concerns the target Histamine H2 receptor (Homo sapiens, UniProt P25021).
Source text: as §1

The target of the next test is D(1B) dopamine receptor (Homo sapiens, UniProt P21918).
Source text: as §1

In a further test the target is Histamine H4 receptor (Homo sapiens, UniProt Q9H3N8).
Source text: as §1

Test [3] concerns the target T2, 5-hydroxytryptamine receptor 3A (Homo sapiens, UniProt P46098).
T2 sequence (P46098 whole entry): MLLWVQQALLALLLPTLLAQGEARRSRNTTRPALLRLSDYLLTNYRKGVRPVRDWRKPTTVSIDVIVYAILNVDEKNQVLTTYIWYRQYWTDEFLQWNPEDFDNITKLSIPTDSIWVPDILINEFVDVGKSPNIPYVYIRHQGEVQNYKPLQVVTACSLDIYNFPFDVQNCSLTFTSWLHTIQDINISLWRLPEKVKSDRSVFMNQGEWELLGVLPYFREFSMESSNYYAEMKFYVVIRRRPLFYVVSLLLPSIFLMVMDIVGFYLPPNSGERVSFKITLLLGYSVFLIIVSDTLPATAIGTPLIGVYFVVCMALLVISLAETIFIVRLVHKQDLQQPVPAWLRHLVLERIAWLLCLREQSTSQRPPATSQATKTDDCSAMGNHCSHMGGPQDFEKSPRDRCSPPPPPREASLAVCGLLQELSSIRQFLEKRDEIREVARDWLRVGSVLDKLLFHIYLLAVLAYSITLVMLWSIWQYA
Source text: as §1

Test [4] concerns the target Glutamate receptor ionotropic, NMDA 2A (Homo sapiens, UniProt Q12879).
Source text: as §1

For test [5], the target named is Delta-type opioid receptor (Homo sapiens, UniProt P41143).
Source text: as §1

The target in a further test is D(1A) dopamine receptor (Homo sapiens, UniProt P21728).
Source text: as §1

Test [6] deals with Kappa-type opioid receptor (Homo sapiens, UniProt P41145).
Source text: as §1

Test [7] concerns the target Beta-1 adrenergic receptor (Homo sapiens, UniProt P08588).
Source text: as §1

Test [8] concerns the target T3, Muscarinic acetylcholine receptor M2 (Homo sapiens, UniProt P08172).
T3 sequence (P08172 whole entry): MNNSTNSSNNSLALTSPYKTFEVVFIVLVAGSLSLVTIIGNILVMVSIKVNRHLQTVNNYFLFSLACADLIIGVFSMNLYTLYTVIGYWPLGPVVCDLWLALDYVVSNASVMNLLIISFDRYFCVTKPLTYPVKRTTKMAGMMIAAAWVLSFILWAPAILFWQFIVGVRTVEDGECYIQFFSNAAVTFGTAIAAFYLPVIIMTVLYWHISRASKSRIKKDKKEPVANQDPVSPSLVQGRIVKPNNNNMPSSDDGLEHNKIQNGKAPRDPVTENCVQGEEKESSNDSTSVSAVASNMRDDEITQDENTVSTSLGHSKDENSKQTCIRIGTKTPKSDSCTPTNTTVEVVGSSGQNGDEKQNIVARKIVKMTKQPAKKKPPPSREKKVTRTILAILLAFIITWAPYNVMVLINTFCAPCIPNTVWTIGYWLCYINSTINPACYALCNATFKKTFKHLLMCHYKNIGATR
Source text: as §1

The target in test [9] is T4, Gamma-aminobutyric acid receptor subunit alpha-1 (Homo sapiens, UniProt P14867).
T4 sequence (P14867 whole entry): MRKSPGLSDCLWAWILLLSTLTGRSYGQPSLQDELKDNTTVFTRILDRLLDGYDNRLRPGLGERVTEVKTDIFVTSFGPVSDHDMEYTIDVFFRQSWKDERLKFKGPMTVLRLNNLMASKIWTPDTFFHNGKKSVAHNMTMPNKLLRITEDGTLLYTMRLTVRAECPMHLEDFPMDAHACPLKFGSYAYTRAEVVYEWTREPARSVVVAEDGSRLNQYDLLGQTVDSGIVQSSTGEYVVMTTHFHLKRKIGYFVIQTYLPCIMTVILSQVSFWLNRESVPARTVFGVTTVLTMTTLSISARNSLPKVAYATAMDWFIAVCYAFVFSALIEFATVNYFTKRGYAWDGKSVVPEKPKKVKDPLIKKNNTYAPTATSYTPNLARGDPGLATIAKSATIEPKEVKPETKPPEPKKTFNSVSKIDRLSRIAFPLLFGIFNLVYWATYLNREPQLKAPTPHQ
Source text: as §1

The target of test [10] is Sodium-dependent noradrenaline transporter (Homo sapiens, UniProt P23975).
Source text: as §1

The target of a further test is Mu-type opioid receptor (Homo sapiens, UniProt P35372).
Source text: as §1

Test [11] deals with 5-hydroxytryptamine receptor 1D (Homo sapiens, UniProt P28221).
Source text: as §1

For test [12], the target named is 5-hydroxytryptamine receptor 6 (Homo sapiens, UniProt P50406).
Source text: as §1

In test [13] the target is 5-hydroxytryptamine receptor 1E (Homo sapiens, UniProt P28566).
Source text: as §1

Chain of 5-hydroxytryptamine receptor 1D (P28221 whole entry): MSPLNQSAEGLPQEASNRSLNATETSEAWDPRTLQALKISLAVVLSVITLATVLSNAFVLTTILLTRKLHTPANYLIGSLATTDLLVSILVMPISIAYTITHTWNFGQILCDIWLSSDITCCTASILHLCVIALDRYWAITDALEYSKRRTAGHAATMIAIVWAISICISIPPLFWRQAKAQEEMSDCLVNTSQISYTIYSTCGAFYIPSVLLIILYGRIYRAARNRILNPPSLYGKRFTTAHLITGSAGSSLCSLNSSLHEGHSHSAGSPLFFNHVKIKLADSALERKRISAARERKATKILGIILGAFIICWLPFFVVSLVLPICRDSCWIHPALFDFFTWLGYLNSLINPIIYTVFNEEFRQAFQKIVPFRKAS
Chain of Kappa-type opioid receptor (P41145 whole entry): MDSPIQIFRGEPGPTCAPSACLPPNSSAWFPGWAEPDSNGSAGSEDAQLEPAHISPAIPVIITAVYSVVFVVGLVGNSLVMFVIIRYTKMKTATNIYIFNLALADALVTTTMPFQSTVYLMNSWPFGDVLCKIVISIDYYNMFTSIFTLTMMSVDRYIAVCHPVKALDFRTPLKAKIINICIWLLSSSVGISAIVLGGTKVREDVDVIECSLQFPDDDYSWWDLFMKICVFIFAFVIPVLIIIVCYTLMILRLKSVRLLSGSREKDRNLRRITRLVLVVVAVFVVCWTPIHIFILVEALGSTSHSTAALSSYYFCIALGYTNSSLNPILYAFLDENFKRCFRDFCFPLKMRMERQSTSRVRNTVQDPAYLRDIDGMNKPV
Chain of Sodium-dependent dopamine transporter (Q01959 whole entry): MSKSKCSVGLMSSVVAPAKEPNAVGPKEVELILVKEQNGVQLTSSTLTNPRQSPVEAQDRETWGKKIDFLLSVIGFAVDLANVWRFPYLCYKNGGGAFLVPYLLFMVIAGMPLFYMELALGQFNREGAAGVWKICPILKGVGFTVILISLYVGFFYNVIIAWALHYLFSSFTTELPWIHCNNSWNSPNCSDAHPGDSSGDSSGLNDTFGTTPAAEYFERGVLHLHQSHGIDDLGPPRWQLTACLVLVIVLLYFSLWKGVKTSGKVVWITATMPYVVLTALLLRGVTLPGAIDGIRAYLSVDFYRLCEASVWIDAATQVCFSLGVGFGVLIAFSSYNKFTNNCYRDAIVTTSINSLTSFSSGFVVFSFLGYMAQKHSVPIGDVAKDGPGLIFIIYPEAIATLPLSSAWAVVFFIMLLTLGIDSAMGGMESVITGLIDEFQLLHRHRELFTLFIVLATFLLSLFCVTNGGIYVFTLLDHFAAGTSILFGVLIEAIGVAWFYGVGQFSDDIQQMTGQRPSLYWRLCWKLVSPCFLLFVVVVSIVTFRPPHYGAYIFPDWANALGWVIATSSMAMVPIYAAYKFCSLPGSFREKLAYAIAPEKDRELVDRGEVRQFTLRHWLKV
Chain of D(1B) dopamine receptor (P21918 whole entry): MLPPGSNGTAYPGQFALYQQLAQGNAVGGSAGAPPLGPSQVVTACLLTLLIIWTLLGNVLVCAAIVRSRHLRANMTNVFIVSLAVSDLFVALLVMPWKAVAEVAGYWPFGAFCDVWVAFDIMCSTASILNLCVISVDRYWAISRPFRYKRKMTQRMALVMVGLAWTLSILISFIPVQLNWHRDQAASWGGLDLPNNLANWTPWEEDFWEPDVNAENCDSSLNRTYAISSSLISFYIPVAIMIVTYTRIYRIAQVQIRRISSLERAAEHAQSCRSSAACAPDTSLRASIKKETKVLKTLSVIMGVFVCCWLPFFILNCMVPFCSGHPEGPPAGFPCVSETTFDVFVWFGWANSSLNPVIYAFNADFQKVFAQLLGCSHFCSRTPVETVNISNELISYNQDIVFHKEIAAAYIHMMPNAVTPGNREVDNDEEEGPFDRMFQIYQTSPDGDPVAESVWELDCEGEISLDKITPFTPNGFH
Chain of Sodium-dependent serotonin transporter (P31645 whole entry): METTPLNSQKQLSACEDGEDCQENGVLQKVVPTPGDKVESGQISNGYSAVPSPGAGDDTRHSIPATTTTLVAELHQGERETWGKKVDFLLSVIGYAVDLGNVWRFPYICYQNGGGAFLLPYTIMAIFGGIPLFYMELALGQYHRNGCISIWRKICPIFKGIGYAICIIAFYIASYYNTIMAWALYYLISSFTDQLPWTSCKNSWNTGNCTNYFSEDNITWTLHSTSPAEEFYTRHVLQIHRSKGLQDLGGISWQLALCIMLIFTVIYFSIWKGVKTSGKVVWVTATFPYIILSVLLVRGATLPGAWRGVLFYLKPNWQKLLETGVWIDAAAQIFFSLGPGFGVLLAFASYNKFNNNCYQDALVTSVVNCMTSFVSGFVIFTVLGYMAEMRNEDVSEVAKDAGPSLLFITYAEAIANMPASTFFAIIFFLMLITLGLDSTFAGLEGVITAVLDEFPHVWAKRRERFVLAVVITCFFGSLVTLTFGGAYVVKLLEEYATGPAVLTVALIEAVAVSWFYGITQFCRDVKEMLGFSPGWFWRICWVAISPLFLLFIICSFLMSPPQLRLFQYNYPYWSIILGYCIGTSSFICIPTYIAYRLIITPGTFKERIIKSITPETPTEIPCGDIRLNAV
Chain of Histamine H4 receptor (Q9H3N8 whole entry): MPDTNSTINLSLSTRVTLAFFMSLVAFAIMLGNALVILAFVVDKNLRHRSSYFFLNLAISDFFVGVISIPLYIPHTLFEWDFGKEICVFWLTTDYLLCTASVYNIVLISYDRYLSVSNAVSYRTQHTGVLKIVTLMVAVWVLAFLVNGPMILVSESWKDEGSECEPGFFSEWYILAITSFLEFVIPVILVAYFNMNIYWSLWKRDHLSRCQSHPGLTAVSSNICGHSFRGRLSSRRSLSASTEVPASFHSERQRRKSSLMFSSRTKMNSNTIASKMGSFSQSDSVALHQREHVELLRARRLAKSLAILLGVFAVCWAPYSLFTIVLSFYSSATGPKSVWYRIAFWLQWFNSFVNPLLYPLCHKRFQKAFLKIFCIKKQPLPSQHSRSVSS
Chain of Histamine H2 receptor (P25021 whole entry): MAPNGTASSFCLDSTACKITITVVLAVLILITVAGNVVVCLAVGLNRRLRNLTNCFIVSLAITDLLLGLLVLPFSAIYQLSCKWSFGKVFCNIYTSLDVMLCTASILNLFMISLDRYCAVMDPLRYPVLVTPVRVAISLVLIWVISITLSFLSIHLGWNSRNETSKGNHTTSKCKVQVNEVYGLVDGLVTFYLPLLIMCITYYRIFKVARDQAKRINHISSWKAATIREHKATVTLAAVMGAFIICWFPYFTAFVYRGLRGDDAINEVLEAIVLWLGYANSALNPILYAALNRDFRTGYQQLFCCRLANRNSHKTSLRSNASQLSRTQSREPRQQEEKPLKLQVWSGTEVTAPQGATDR
Chain of Beta-1 adrenergic receptor (P08588 whole entry): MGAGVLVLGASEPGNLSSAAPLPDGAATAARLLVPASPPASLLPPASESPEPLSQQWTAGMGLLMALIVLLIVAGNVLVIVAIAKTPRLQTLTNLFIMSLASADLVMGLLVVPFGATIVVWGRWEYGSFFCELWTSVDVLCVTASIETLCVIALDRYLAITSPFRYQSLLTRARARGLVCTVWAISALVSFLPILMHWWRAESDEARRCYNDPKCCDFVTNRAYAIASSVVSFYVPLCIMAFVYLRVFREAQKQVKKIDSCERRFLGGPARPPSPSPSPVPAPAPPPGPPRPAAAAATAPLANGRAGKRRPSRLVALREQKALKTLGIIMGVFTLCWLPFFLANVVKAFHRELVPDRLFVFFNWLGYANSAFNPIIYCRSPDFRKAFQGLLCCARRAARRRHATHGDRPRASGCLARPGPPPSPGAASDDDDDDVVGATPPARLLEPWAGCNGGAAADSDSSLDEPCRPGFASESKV
Chain of Delta-type opioid receptor (P41143 whole entry): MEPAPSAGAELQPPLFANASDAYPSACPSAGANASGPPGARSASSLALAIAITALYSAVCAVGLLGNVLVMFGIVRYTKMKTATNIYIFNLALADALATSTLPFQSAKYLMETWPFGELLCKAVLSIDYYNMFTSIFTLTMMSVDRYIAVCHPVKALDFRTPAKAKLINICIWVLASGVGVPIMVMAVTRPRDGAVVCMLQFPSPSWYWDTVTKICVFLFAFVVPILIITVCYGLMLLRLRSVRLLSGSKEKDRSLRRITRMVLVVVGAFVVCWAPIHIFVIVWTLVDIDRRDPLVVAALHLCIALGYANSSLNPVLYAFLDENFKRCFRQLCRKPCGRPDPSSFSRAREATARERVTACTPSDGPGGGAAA
Chain of Sodium-dependent noradrenaline transporter (P23975 whole entry): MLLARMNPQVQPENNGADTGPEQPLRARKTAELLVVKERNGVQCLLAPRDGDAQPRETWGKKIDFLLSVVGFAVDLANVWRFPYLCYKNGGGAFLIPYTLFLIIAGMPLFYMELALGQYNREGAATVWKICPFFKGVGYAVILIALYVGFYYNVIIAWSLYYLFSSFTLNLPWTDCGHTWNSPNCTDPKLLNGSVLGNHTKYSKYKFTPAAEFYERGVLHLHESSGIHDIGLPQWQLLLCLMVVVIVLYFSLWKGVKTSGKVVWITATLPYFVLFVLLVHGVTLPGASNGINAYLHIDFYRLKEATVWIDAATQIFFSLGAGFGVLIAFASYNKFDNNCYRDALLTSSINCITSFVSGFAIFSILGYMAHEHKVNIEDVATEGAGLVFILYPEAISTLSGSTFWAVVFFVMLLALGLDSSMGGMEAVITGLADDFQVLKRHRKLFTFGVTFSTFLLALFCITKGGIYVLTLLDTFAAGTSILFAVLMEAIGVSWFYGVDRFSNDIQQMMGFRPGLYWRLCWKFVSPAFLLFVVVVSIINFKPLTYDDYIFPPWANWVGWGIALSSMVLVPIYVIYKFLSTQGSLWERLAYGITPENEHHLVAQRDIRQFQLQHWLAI

As usually defined, the Ki is a measure of affinity in units of concentration, obtained from inhibition or displacement. Read a high Ki as lower affinity. As for `CCSc1cc(OC)c(CC(C)N)cc1OC` (stereo not drawn) [2-(4-Ethylsulfanyl-2,5-dimethoxy-phenyl)-1-methyl-ethylamine], the Ki is 1.32 µM in test [1]; over 10 µM in test [2]; over 10 µM at D(4) dopamine receptor; over 10 µM on Histamine H2 receptor; over 10 µM at D(1B) dopamine receptor; over 10 µM on Histamine H4 receptor. The Ki in test [3] was over 10 µM; in test [4], over 10 µM; in test [5], over 10 µM; at D(1A) dopamine receptor, over 10 µM; in test [6] it was over 10 µM; in test [7], 6.79 µM. In addition, the Ki in test [8] was over 10 µM; in test [9], over 10 µM; in test [10] it was over 10 µM; on Mu-type opioid receptor it was over 10 µM; in test [11], 1.53 µM.

Consider `NCCc1c2c(c(Br)c3c1OCC3)OCC2` [2-(8-Bromo-2,3,6,7-tetrahydro-benzo[1,2-b;4,5-b']difuran-4-yl)-ethylamine], for which the Ki (in test [1]; in [2]; at D(4) dopamine receptor; on Histamine H2 receptor; on D(1B) dopamine receptor; on Histamine H4 receptor) was over 10 µM each time. Moreover, the Ki in [3] was over 10 µM; in [5], over 10 µM; on D(1A) dopamine receptor, 4.96 µM; in [6], over 10 µM; in [7] it was over 10 µM; in test [12], 0.15 µM. The Ki in [8] is 2.03 µM; in test [13], 0.11 µM; in [9], over 10 µM; in test [10], over 10 µM; on Mu-type opioid receptor it was over 10 µM; in test [11] it was 0.0014 µM.

As for `COc1cc(CCN)c(OC)cc1Br`, the inhibition constant (Ki) (in test [1]; in [2]; at D(4) dopamine receptor; at Histamine H2 receptor; on D(1B) dopamine receptor; on Histamine H4 receptor) was over 10 µM throughout. Moreover, the Ki in test [3] was over 10 µM; in test [4] it was over 10 µM; in test [5], over 10 µM; at D(1A) dopamine receptor, over 10 µM; in test [6], over 10 µM; in test [12] it was 0.32 µM. Also, the Ki in test [8] was over 10 µM; in test [13], 0.12 µM; in test [9] it was over 10 µM; in [10], over 10 µM; on Mu-type opioid receptor it was over 10 µM; in test [11] it was 0.0263 µM.

`CCc1[nH]c2ccc(OC)cc2c1CCN(C)C` [2-ethyl-5-methoxy-N,N-dimethyltryptamine]: the Ki (in test [2]; at D(4) dopamine receptor; on Histamine H4 receptor; in [4]; in test [5]; in test [6]) was over 10 µM throughout. Moreover, the inhibition constant (Ki) (in test [8]; on Mu-type opioid receptor) was over 10 µM throughout.

On to `COc1ccc2[nH]c(C)c(CCN(C)C)c2c1` [[2-(5-Methoxy-2-methyl-1H-indol-3-yl)-ethyl]-dimethyl-amine (C2H2O)], for which the Ki (in [2]; on D(4) dopamine receptor; on Histamine H4 receptor; in [4]; in test [5]; in test [6]) was over 10 µM each time. In addition, the Ki (in test [8]; at Mu-type opioid receptor) was over 10 µM throughout.

As to `CN(C)CCc1c[nH]c2cccc(O)c12` [4-hydroxy-N,N-dimethyltryptamine], the Ki in test [1] was 0.852 µM; in test [2], over 10 µM; on D(4) dopamine receptor it was over 10 µM; at Histamine H2 receptor, over 10 µM; at D(1B) dopamine receptor, over 10 µM; at Histamine H4 receptor it was over 10 µM. The Ki in [3], in [5], in [6], in test [7], in [8] and in [9] was over 10 µM each time. Also, the Ki (in test [10]; at Mu-type opioid receptor) was over 10 µM in each case.
